The results in this text go back to patent EP0521692A2, “Inhibition of tumor cell metastasis potential and invasiveness by chemically-defined oligosaccharides, their derivatives, mimetics and antibodies directed to them” (The Biomembrane Institute, priority 1991, dated 1993).

The test system of assay [1] is BL6 clone of B16 melanoma cell line. Kind of assay: Lung colony formation after i.v. injection of BL6 cells preincubated with oligosaccharide. The class given is in vivo, C57/BL mice. Conditions: for reductions of metastatic colonies in lung: BL6 cells preincubated with the sugar, then intravenous injection, 0.1 M, 37°C, 10 minutes in the majority of experiments; for total colony number reduced to % of control value: second independent series (Figure 1): preincubation with 0.1 M, 2 x 10^4 cells i.v., counted at 21 days. As to the method:
The highly metastatic BL6 clone of B16 melanoma cell line was obtained originally from Dr. Jean Starkey (Montana State Univ., Bozeman, MT), and clones were reselected in syngeneic C57/BL mice according to their metastatic potential. C57/BL mice were maintained in plastic cages under filtered air atmosphere and provided with water and food pellets ad lib. Cells were cultured in RPMI 1640 supplemented with 2 mM glutamine and 10% fetal calf serum (FCS), and detached with phosphate buffered saline (PBS) containing 2 mM EDTA. Viability was tested by trypan blue exclusion test.
A suspension of BL6 cells (1-3 x 10⁶ cells/ml RPMI 1640 medium) was prepared and aliquots were incubated in the presence or absence of various oligosaccharides at various concentrations, at 37°C for 5-10 minutes. Following incubation, typically, 3 x 10⁴ or 2 x 10⁴ cells (with or without oligosaccharide pretreatment) per 200 µl were injected via tail vein into 8-week-old female mice. After 18-21 days, mice were killed, lungs were fixed in 10% formaldehyde in PBS (pH 7.4), and tumor cell colonies were counted under a dissecting microscope, thus providing background values of metastatic melanoma colony number in lung under these conditions. Data on number and size of colonies were statistically treated by the analysis of variance (ANOVA) procedure. Colonies with a diameter of 1 mm or greater were considered large-size and those with a diameter less than 1 mm were considered small-size.
(§1) For one experiment, BL6 cells were incubated with various concentrations of lactose, lacto-N-tetrose (Galβ1→3GlcNAcβl→3Galβ1→4GLc), methyl β-D-lactoside, or phenyl β-D-thiolactoside for various durations. In the majority of experiments, a concentration of 0.1 M was used and cells were incubated at 37°C for 10 minutes, separated from sugar-containing medium by mild centrifugation at 400 x g for 10 minutes, resuspended in RPMI 1640, and injected (3 x 10⁴ cells in 0.2 ml suspension) via tail vein. For some experiments, 2 x 10⁴ cells were injected and colonies were counted at 21 days. Viability and cell growth ability of BL6 cells after incubation in various sugar solutions were tested by trypan blue exclusion test, and by plating in RPMI 1640 culture under normal conditions in vitro, as well as by subcutaneous inoculation in age-matched C57/BL mice in order to test tumor growth.

In assay [2] the test system is B16 melanoma cells. Nature of the assay: Lung colony formation, oligosaccharide injected i.p. before i.v. inoculation of tumor cells. Conditions: 1 ml of 0.25 M or 0.5 M i.p., 10 minutes before i.v. B16 melanoma cells; colonies counted 19 days later (Figure 2). The class given is in vivo, C57/BL mice. The method, then:
Figure 2 graphically illustrates the effect of prior administration of methyl β-D-lactoside on the number and size of lung colony deposits of BL6 cells. Methyl β-D-lactoside (1 ml dosage) was injected intraperitoneally into C57/BL mice. After 10 minutes, B16 melanoma cells were injected intravenously. Lung colonies were counted and sized at 19 days. Group A represents control animals (not administered methyl β-D-lactoside) and groups B and C represent animals injected with 0.25 M and 0.5 M methyl β-D-lactoside, respectively. For each group, column 1 represents the total number of colonies, column 2 the number of colonies with diameter > 1 mm, and column 3 the number of colonies with diameter < 1 mm. Number of experiments is expressed as "n".
In a separate experiment, the effect of methyl β-D-lactoside on melanoma cell metastasis was determined after administration of the oligosaccharide, followed by inoculation with tumor cells. Specifically, a one ml dosage of methyl β-D-lactoside (at a concentration of 0.25 M or 0.5 M) was injected intraperitoneally in mice. After 10 minutes, B16 melanoma cells were injected intravenously. Lung colonies were counted 19 days later.

The subject of assay [3] is melanoma cell (BL6) adhesion on endothelial cells (HuVEC). Nature of the assay: Melanoma cell adhesion on endothelial cells. The following applies: Figure 5. The class given is cell-based, mouse. An excerpt:
(§2) Figure 5 graphically illustrates the melanoma cell (BL6) adhesion on LacCer (Panel A) and on endothelial cells (HuVEC) (Panel B) are inhibited by LacCer and GM3.
GM3 interacts with LacCer, which is highly expressed on endothelial cells. The order of adhesion of the B16 variants onto LacCer-coated solid phase or onto endothelial cells was also in the same order as their metastatic potential. In contrast, integrin-dependent adhesion of the B16 variants was approximately equal for BL6, F10, and F1 (see Figure 4).

The subject of assay [4] is BL6 cells. Kind of assay: In vitro cell growth and thymidine incorporation after incubation with sugar. Type of assay: cell-based, mouse. As to the method: as §1
In general terms: Dividing cells build labelled thymidine or BrdU into new DNA.

Assay [5] has as its target T1, GMP-140 (Homo sapiens, UniProt P16109).
T1 sequence (P16109 42-830): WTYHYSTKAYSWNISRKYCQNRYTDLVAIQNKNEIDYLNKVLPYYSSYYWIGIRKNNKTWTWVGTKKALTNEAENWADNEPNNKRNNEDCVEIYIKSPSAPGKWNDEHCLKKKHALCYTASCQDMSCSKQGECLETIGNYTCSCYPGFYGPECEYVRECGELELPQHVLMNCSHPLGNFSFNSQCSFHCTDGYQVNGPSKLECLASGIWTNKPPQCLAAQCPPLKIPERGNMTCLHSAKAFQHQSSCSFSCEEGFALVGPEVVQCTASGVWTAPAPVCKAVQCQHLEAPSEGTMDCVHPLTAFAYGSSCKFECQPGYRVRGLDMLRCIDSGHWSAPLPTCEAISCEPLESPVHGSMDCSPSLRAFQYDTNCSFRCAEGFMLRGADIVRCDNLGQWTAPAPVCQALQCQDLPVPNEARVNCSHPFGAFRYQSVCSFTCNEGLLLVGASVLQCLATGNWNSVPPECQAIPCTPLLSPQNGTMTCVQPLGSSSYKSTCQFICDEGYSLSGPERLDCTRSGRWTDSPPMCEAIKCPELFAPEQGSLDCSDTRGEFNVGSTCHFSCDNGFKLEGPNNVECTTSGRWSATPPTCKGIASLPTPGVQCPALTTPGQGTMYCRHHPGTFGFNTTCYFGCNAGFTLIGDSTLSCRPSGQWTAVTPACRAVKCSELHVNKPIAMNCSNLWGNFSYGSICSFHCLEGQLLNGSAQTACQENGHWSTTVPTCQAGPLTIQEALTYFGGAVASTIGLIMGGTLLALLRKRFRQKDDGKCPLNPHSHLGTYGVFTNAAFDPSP
Kind of assay: Binding of platelets to fluorescent polystyrene beads coated with GSL (flow cytometry). Conditions: for Binding index, Ratio (Activated/ Non-activated): ratio of binding index of activated to non-activated platelets; for Binding index, Activated platelets: thrombin-activated platelets, GSL-coated sulfate-containing polystyrene beads, MFI relative to non-GSL-coated beads, means of four experiments. As to the method:
Fluorescent plastic (e.g. polystyrene) beads (diameter ≈ 0.5 µm) are coated with GSL. GSLs are known to be strongly adsorbed on such beads, which allows construction of fluorescent probes containing specific GSLs. Platelets (activated or non-activated) are incubated with such GSL-coated beads, followed by determination of platelet fluorescence intensity by flow cytometry.
Platelets were isolated from"platelet-rich plasma"obtained from the Oregon Red Cross (Portland, OR), and contaminating red blood cells were removed by centrifugation at 80xg for 10 min. Platelets were centrifuged at 300xg for 10 min, and suspended in Tyrode's buffer (pH 6.5) containing 22 mM citrate buffer with 0.35% bovine serum albumin (BSA). Platelet suspension (1x10⁸/ml) was incubated (pH 7.2, 37°C, 5 min) after addition of thrombin (final concentration 1 U/ml). The mixture was then incubated at 37°C for 10 min without stirring. Thrombin-activated platelets were fixed with an equal volume of 2% formaldehyde in phosphate-buffered saline (PBS), pH 7.2, and washed 2x with PBS containing 1% BSA.
Activated and non-activated platelets were fixed with paraformaldehyde in Ca²⁺-free PBS, pH 7.2, washed 2x with Ca^2a+-containing PBS with 1% BSA, resuspended in CA^2a+-PBS with 1% BSA and 0.1% azide, and the number of platelets adjusted to ≈1x10⁹/ml. The cell suspension was stored at 4°C and the binding assay performed within 24 hr.
Fluorescent polystyrene latex beads were obtained from Molecular Probe, Inc., Eugene, OR. They were yellow-green fluorescent beads with a sulfate group at the surface, diameter ≈0.5 µm (actually 0.486 µm). 1x10⁹ beads in 30 µl ETOH were added to 10 µg of GSL solution in 200 µl C=M, mixed well, and dried under an N₂ stream. The residue was resuspended in 200 µl ethanol, sonicated briefly, and dried under an N₂ stream. […]
20 µl of platelet (non-activated or activated) suspension ... paraformaldehyde-fixed -- containing ≈2x10⁷ platelets was mixed with 10 µl of fluorescent GSL-coated beads -- containing ≈2x10⁷ beads, mixed well, […] allowed to stand at 37°C for 30 min. The platelet suspension was mixed with 200 µl Ca²⁺-PBS and analyzed by flow cytometry (EPICS Profile, Coulter Cytometry, Hialeath, FL).
Flow cytometric analyses of platelets alone and beads alone were performed for a gating set to include most signals produced by platelets by excluding signals produced by free beads. The binding index (BI) was calculated as mean fluorescence intensity (MFI) of platelets incubated with fluorescent GSL-coated beads, divided by MFI of platelets incubated with fluorescent non-GSL-coated (control) beads. […]
A general note: In flow cytometry, cells or beads pass a laser one at a time.

Assay [6] relates to melanoma cell (BL6) adhesion on LacCer. Nature of the assay: Melanoma cell adhesion on LacCer-coated solid phase. Type of assay: cell-based, mouse. The following applies: Figure 5, Panel A.
Text: Figure 4 graphically illustrates that melanoma cell adhesion on LacCer is based on GM3-LacCer interaction. The order of metastatic potential is BL6>F10>F1>>WA4.
as §2

With `OC[C@H]1O[C@@H](O[C@H]2[C@H](O)[C@@H](O)C(O)O[C@@H]2CO)[C@H](O)[C@@H](O)[C@H]1O` (stereo partly drawn) [Lactose], in assay [1], the “reductions of metastatic colonies in lung” value turned out to be 26%.

Regarding `CC(=O)N[C@H]1[C@H](O[C@H]2[C@@H](O)[C@@H](CO)O[C@@H](O[C@H]3[C@H](O)[C@@H](O)C(O)O[C@@H]3CO)[C@@H]2O)O[C@H](CO)[C@@H](O)[C@@H]1O[C@@H]1O[C@H](CO)[C@H](O)[C@H](O)[C@H]1O` (stereo partly drawn) [lacto-N-tetrose, Galβ1→3GlcNAcβl→3Galβl→4Glc], in assay [1], the “reductions of metastatic colonies in lung” value is recorded as 36%.

As for `CO[C@@H]1O[C@H](CO)[C@@H](O[C@@H]2O[C@H](CO)[C@H](O)[C@H](O)[C@H]2O)[C@H](O)[C@H]1O` [methyl β-D-lactoside], the “lung metastatic colony formation” value in assay [2] was “significant reduction”. Further, the “B16 melanoma adhesion on endothelial cells” value in assay [3] is “inhibited”. Also, the “effect on cell number increase” value in assay [4] is “slight in vitro stimulatory effect”. In addition, the “effect on thymidine incorporation” value in assay [4] is on record as “slight in vitro stimulatory effect”. The entries for the “reduction of metastatic lung colony number compared to control” value in assay [1] (BL6 cells treated with 0.005 M), in assay [1] (BL6 cells treated with 0.01 M) and in assay [1] (BL6 cells treated with 0.1 M) were 8%, 16% and 43%, respectively. The “total colony number reduced to % of control value” in assay [1] is listed as 35%.

As for `OC[C@H]1O[C@@H](O[C@H]2[C@H](O)[C@@H](O)[C@H](Sc3ccccc3)O[C@@H]2CO)[C@H](O)[C@@H](O)[C@H]1O` [phenyl β-D-thiolactoside], in assay [4], the “effect on cell number increase” value is “slight in vitro stimulatory effect” and the “effect on thymidine incorporation” value is reported as “slight in vitro stimulatory effect”. The “total colony number reduced to % of control value” in assay [1] is given as 50%.

In the case of “NeuAcα2→3Galβ1→4GlcNAcβ1→3Galβ1→R [SPG, reference compound]”, in assay [5], the “Binding index, Ratio (Activated/ Non-activated)” value came out at 0.7 ± 0.2 and the “Binding index, Activated platelets” value stood at 0.8 ± 0.2.

For the compound NeuAcα2→3Galβl→4Glcβl→Cer [GM3], in assay [5], the “Binding index, Ratio (Activated/ Non-activated)” value is given as 0.7 ± 0.5 and the “Binding index, Activated platelets” value was 1.0 ± 0.1. For the same compound, the “melanoma cell (BL6) adhesion on LacCer” value in assay [6] is “inhibited”.
